How the values were obtained:
P. aeruginosa [1] = test: PqsE-dependent pyocyanin production; assay type: cell-based, Pseudomonas aeruginosa; settings: 100 μM, overnight at 37°C, OD695
P. aeruginosa [2] = test: Mass spectrometry of compound levels in cell-free culture fluid and cell lysate; assay type: cell-based, Pseudomonas aeruginosa; settings: positive control
P. aeruginosa [3] = settings: cited from earlier work

Row | Compound | effect on pyocyanin production (P. aeruginosa [1]) | concentration in cell lysate over time (P. aeruginosa [2]) | concentration in cell-free culture fluid over time (P. aeruginosa [2]) | effect on in vivo pyocyanin production levels (P. aeruginosa [3])
1 | meta-bromo-thiolactone [mBTL] | known inhibitor of pyocyanin production | increased | progressively decreased | –
2 | O=C(O)c1ccccc1-c1cccnc1 [Compound C1, 2-(pyridin-3’-yl) benzoic acid] | – | – | – | does not affect in vivo pyocyanin production levels
